Results as given in PubChem BioAssay (NCI).
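Assay format: 96-well plates, 48-hour exposure. At the GI50, growth is halved. TGI: concentration producing complete growth inhibition.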

Columns and labels:
Assay in all cases: NCI-60 cell line screen, 48 h
MDA-MB-231 breast = tested on: MDA-MB-231 breast
HT29 colon = tested on: HT29 colon
OVCAR-3 ovarian = tested on: OVCAR-3 ovarian
SNB-19 CNS = tested on: SNB-19 CNS
SK-MEL-28 melanoma = tested on: SK-MEL-28 melanoma
BT-549 breast = tested on: BT-549 breast
HOP-92 NSCLC = tested on: HOP-92 NSCLC
SN12C renal = tested on: SN12C renal
A549 NSCLC = tested on: A549 NSCLC
NCI-H23 lung = tested on: NCI-H23 lung
RPMI-8226 leukemia = tested on: RPMI-8226 leukemia
KM12 colon = tested on: KM12 colon
K-562 leukemia = tested on: K-562 leukemia
CCRF-CEM leukemia = tested on: CCRF-CEM leukemia
SF-539 CNS = tested on: SF-539 CNS
DU-145 prostate = tested on: DU-145 prostate
SNB-75 CNS = tested on: SNB-75 CNS
OVCAR-5 ovarian = tested on: OVCAR-5 ovarian
UACC-62 melanoma = tested on: UACC-62 melanoma
SK-MEL-5 melanoma = tested on: SK-MEL-5 melanoma
IGROV1 ovarian = tested on: IGROV1 ovarian
NCI/ADR-RES ovarian = tested on: NCI/ADR-RES ovarian
SW-620 colon = tested on: SW-620 colon
UO-31 renal = tested on: UO-31 renal
UACC-257 melanoma = tested on: UACC-257 melanoma
HCT-15 colon = tested on: HCT-15 colon
NCI-H460 lung = tested on: NCI-H460 lung
RXF 393 renal = tested on: RXF 393 renal
SK-MEL-2 melanoma = tested on: SK-MEL-2 melanoma
TK-10 renal = tested on: TK-10 renal
T-47D breast = tested on: T-47D breast
HCT-116 colon = tested on: HCT-116 colon
PC-3 prostate = tested on: PC-3 prostate
SK-OV-3 ovarian = tested on: SK-OV-3 ovarian
SF-295 CNS = tested on: SF-295 CNS
M14 melanoma = tested on: M14 melanoma
OVCAR-4 ovarian = tested on: OVCAR-4 ovarian
MOLT-4 leukemia = tested on: MOLT-4 leukemia
SR leukemia = tested on: SR leukemia
HOP-62 NSCLC = tested on: HOP-62 NSCLC
OVCAR-8 ovarian = tested on: OVCAR-8 ovarian
HL-60(TB) leukemia = tested on: HL-60(TB) leukemia
MCF7 breast = tested on: MCF7 breast
EKVX NSCLC = tested on: EKVX NSCLC
U251 CNS = tested on: U251 CNS
SF-268 CNS = tested on: SF-268 CNS
NCI-H522 lung = tested on: NCI-H522 lung
HCC-2998 colon = tested on: HCC-2998 colon
NCI-H226 lung = tested on: NCI-H226 lung
LOX IMVI melanoma = tested on: LOX IMVI melanoma
MDA-MB-435 = tested on: MDA-MB-435
786-0 renal = tested on: 786-0 renal
MALME-3M melanoma = tested on: MALME-3M melanoma
A498 renal = tested on: A498 renal
HS 578T breast = tested on: HS 578T breast
CAKI-1 renal = tested on: CAKI-1 renal
COLO 205 colon = tested on: COLO 205 colon
ACHN renal = tested on: ACHN renal

## COc1ccc2[nH]c(=O)c(/C=C/C(=O)c3ccccc3OC)cc2c1
MDA-MB-231 breast
  GI50: 1.44 µM
  TGI: 11 µM
HT29 colon
  GI50: 0.293 µM
  TGI: 1.37 µM
OVCAR-3 ovarian
  GI50: 0.359 µM
  TGI: 1.64 µM
SNB-19 CNS
  GI50: 0.362 µM
  TGI: 1.79 µM
SK-MEL-28 melanoma
  GI50: 1.52 µM
  TGI: 7.31 µM
BT-549 breast
  GI50: 0.387 µM
  TGI: 2.42 µM
HOP-92 NSCLC
  GI50: 1.57 µM
  TGI: 6.17 µM
SN12C renal
  GI50: 0.537 µM
  TGI: 10.3 µM
A549 NSCLC
  GI50: 2.09 µM
  TGI: 10.4 µM
NCI-H23 lung
  GI50: 1.33 µM
  TGI: 3.93 µM
RPMI-8226 leukemia
  GI50: 0.385 µM
  TGI: 2.21 µM
KM12 colon
  GI50: 0.321 µM
  TGI: 1.58 µM
K-562 leukemia
  GI50: 0.162 µM
  TGI: > 100 µM
CCRF-CEM leukemia
  GI50: 0.392 µM
  TGI: > 100 µM
SF-539 CNS
  GI50: 0.443 µM
  TGI: 2.49 µM
DU-145 prostate
  GI50: 0.529 µM
  TGI: 1.96 µM
SNB-75 CNS
  GI50: 0.47 µM
  TGI: 14.2 µM
OVCAR-5 ovarian
  GI50: 1.97 µM
  TGI: 10.4 µM
UACC-62 melanoma
  GI50: 0.478 µM
  TGI: 2.97 µM
SK-MEL-5 melanoma
  GI50: 0.728 µM
  TGI: 2.08 µM
IGROV1 ovarian
  GI50: 0.582 µM
  TGI: 17 µM
NCI/ADR-RES ovarian
  GI50: 0.273 µM
  TGI: 20 µM
SW-620 colon
  GI50: 0.335 µM
  TGI: 2.24 µM
UO-31 renal
  GI50: 0.958 µM
  TGI: 2.28 µM
UACC-257 melanoma
  GI50: 1.38 µM
  TGI: 3.05 µM
HCT-15 colon
  GI50: 0.395 µM
  TGI: 2.05 µM
NCI-H460 lung
  GI50: 0.38 µM
  TGI: 2.25 µM
RXF 393 renal
  GI50: 1.02 µM
  TGI: 2.57 µM
SK-MEL-2 melanoma
  GI50: 0.694 µM
  TGI: 4.39 µM
TK-10 renal
  GI50: 2.31 µM
  TGI: 13.1 µM
T-47D breast
  GI50: 1.06 µM
  TGI: 11.8 µM
HCT-116 colon
  GI50: 0.348 µM
  TGI: 1.48 µM
PC-3 prostate
  GI50: 0.842 µM
  TGI: 3.75 µM
SK-OV-3 ovarian
  GI50: 2.23 µM
  TGI: 12.8 µM
SF-295 CNS
  GI50: 0.529 µM
  TGI: 12.1 µM
M14 melanoma
  GI50: 0.278 µM
  TGI: 1.41 µM
OVCAR-4 ovarian
  GI50: 4.07 µM
  TGI: 23.2 µM
MOLT-4 leukemia
  GI50: 0.421 µM
  TGI: 27.1 µM
SR leukemia
  GI50: 0.0656 µM
  TGI: 10.3 µM
HOP-62 NSCLC
  GI50: 1.24 µM
  TGI: 5.32 µM
OVCAR-8 ovarian
  GI50: 0.874 µM
  TGI: 11.6 µM
HL-60(TB) leukemia
  GI50: 0.206 µM
  TGI: 0.883 µM
MCF7 breast
  GI50: 0.312 µM
  TGI: 7.48 µM
EKVX NSCLC
  GI50: 2.05 µM
  TGI: 10.5 µM
U251 CNS
  GI50: 0.521 µM
  TGI: 1.7 µM
SF-268 CNS
  GI50: 0.69 µM
  TGI: 10.5 µM
NCI-H522 lung
  GI50: 0.352 µM
  TGI: 2.06 µM
HCC-2998 colon
  GI50: 1.57 µM
  TGI: 3.03 µM
NCI-H226 lung
  GI50: 3.34 µM
  TGI: 18.5 µM
LOX IMVI melanoma
  GI50: 0.379 µM
  TGI: 1.61 µM
MDA-MB-435
  GI50: 0.0564 µM
  TGI: 0.275 µM
786-0 renal
  GI50: 0.378 µM
  TGI: 1.56 µM
MALME-3M melanoma
  GI50: 0.766 µM
  TGI: 8.09 µM
A498 renal
  GI50: 0.656 µM
  TGI: 4.55 µM

## CCCCCCCCCCCCCCCC[N+](C)(C)Cc1ccc(F)cc1
HT29 colon
  TGI: 5.78 µM
OVCAR-3 ovarian
  TGI: 5.49 µM
HS 578T breast
  TGI: 3.44 µM
SK-MEL-28 melanoma
  TGI: 15.1 µM
BT-549 breast
  TGI: 8.87 µM
A549 NSCLC
  TGI: 11.3 µM
NCI-H23 lung
  TGI: 14.2 µM
KM12 colon
  TGI: 2.33 µM
CCRF-CEM leukemia
  TGI: 3.28 µM
SF-539 CNS
  TGI: 2.31 µM
DU-145 prostate
  TGI: 20.8 µM
OVCAR-5 ovarian
  TGI: 3.79 µM
UACC-62 melanoma
  TGI: 4.45 µM
CAKI-1 renal
  TGI: 15.6 µM
IGROV1 ovarian
  TGI: 1.57 µM
NCI/ADR-RES ovarian
  TGI: 57.1 µM
COLO 205 colon
  TGI: 2.87 µM
UO-31 renal
  TGI: 31.1 µM
UACC-257 melanoma
  TGI: 4.92 µM
HCT-15 colon
  TGI: 34.9 µM
ACHN renal
  TGI: 10.1 µM
SK-MEL-2 melanoma
  TGI: 2.82 µM
TK-10 renal
  TGI: 4.8 µM
T-47D breast
  TGI: 25.9 µM
PC-3 prostate
  TGI: 2.51 µM
SK-OV-3 ovarian
  TGI: 6.68 µM
SF-295 CNS
  TGI: 7.69 µM
M14 melanoma
  TGI: 3.05 µM
SR leukemia
  TGI: 4.23 µM
OVCAR-8 ovarian
  TGI: 3.11 µM
MCF7 breast
  TGI: 3.67 µM
EKVX NSCLC
  TGI: 6.01 µM
NCI-H522 lung
  TGI: 2.03 µM
NCI-H226 lung
  TGI: 9.58 µM
MDA-MB-435
  TGI: 3.99 µM
A498 renal
  TGI: 88.7 µM

## N=C(N)c1ccc(-c2ccc(-c3cccs3)o2)cc1
HT29 colon
  GI50: 1.89 µM
  TGI: 3.7 µM
OVCAR-3 ovarian
  GI50: 2.25 µM
  TGI: 4.92 µM
SNB-19 CNS
  GI50: 2.43 µM
  TGI: 7.81 µM
HS 578T breast
  GI50: 2.14 µM
  TGI: 5.25 µM
SK-MEL-28 melanoma
  GI50: 1.71 µM
  TGI: 3.11 µM
BT-549 breast
  GI50: 2.05 µM
  TGI: 4.02 µM
HOP-92 NSCLC
  GI50: 1.4 µM
  TGI: 3.1 µM
SN12C renal
  GI50: 1.97 µM
  TGI: 4.38 µM
NCI-H23 lung
  GI50: 3.63 µM
  TGI: 13.2 µM
RPMI-8226 leukemia
  GI50: 2.12 µM
  TGI: 4.98 µM
K-562 leukemia
  GI50: 2.27 µM
  TGI: 5.72 µM
CCRF-CEM leukemia
  GI50: 2.33 µM
  TGI: 5.9 µM
SF-539 CNS
  GI50: 1.68 µM
  TGI: 3.14 µM
DU-145 prostate
  GI50: 2.91 µM
  TGI: 7.31 µM
SNB-75 CNS
  GI50: 1.71 µM
  TGI: 3.5 µM
OVCAR-5 ovarian
  GI50: 2.02 µM
  TGI: 6.2 µM
UACC-62 melanoma
  GI50: 1.75 µM
  TGI: 3.35 µM
SK-MEL-5 melanoma
  GI50: 1.65 µM
  TGI: 3.02 µM
CAKI-1 renal
  GI50: 2.14 µM
  TGI: 5.2 µM
IGROV1 ovarian
  GI50: 1.92 µM
  TGI: 3.83 µM
NCI/ADR-RES ovarian
  GI50: 2.88 µM
  TGI: 7.63 µM
COLO 205 colon
  GI50: 1.91 µM
  TGI: 3.49 µM
SW-620 colon
  GI50: 1.77 µM
  TGI: 3.37 µM
UO-31 renal
  GI50: 1.9 µM
  TGI: 3.74 µM
UACC-257 melanoma
  GI50: 1.98 µM
  TGI: 3.63 µM
HCT-15 colon
  GI50: 1.86 µM
  TGI: 3.8 µM
ACHN renal
  GI50: 1.86 µM
  TGI: 3.51 µM
NCI-H460 lung
  GI50: 1.79 µM
  TGI: 3.41 µM
RXF 393 renal
  GI50: 1.69 µM
  TGI: 3.46 µM
SK-MEL-2 melanoma
  GI50: 2.19 µM
  TGI: 4.04 µM
TK-10 renal
  GI50: 1.95 µM
  TGI: 3.44 µM
T-47D breast
  GI50: 2.17 µM
  TGI: 4.88 µM
HCT-116 colon
  GI50: 1.83 µM
  TGI: 3.23 µM
PC-3 prostate
  GI50: 2.13 µM
  TGI: 5.56 µM
SK-OV-3 ovarian
  GI50: 2.4 µM
  TGI: 5.77 µM
M14 melanoma
  GI50: 1.9 µM
  TGI: 3.39 µM
OVCAR-4 ovarian
  GI50: 2.35 µM
  TGI: 5.72 µM
MOLT-4 leukemia
  GI50: 2.34 µM
  TGI: 4.89 µM
SR leukemia
  GI50: 2.99 µM
  TGI: 8.54 µM
HOP-62 NSCLC
  GI50: 2.04 µM
  TGI: 4.32 µM
HL-60(TB) leukemia
  GI50: 1.82 µM
  TGI: 4.11 µM
MCF7 breast
  GI50: 1.69 µM
  TGI: 3.29 µM
U251 CNS
  GI50: 1.76 µM
  TGI: 3.37 µM
SF-268 CNS
  GI50: 2.19 µM
  TGI: 5.17 µM
NCI-H522 lung
  GI50: 2.01 µM
  TGI: 3.89 µM
HCC-2998 colon
  GI50: 1.87 µM
  TGI: 3.41 µM
NCI-H226 lung
  GI50: 2.07 µM
  TGI: 5.13 µM
MDA-MB-435
  GI50: 1.76 µM
  TGI: 3.39 µM
786-0 renal
  GI50: 1.89 µM
  TGI: 3.44 µM
MALME-3M melanoma
  GI50: 1.91 µM
  TGI: 3.42 µM
A498 renal
  GI50: 1.8 µM
  TGI: 3.86 µM
